From PMC4578436, “Synthesis and evaluation of the biostability and cell compatibility of novel conjugates of nucleobase, peptidic epitope, and saccharide” (Beilstein Journal of Organic Chemistry, 2015)
Where a SMILES comes first, the peptide text is derived from it. The star is where a group is joined. Adenin9ylacetyl = Nc1ncnc2c1ncn2CC(=O)*

What was measured:
[1] = molecular target: T1, proteinase K (Parengyodontium album, UniProt P06873); details: peptide sequence alone; cited from earlier work
T1 construct: purchased Sigma
T1 sequence (P06873 106-384): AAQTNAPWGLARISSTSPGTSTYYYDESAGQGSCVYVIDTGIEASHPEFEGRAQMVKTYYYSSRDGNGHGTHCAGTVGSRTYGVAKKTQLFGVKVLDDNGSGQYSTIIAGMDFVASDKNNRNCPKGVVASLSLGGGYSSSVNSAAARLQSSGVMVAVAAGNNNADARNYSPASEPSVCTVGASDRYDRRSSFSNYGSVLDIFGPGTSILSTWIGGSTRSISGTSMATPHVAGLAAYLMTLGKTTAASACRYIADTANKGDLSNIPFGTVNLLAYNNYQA
Excerpt: This article reports the synthesis of a new class of conjugates containing a nucleobase, a peptidic epitope, and a saccharide and the evalution of their gelation, biostability, and cell compatibility. […] All the conjugates themselves (1–8) display excellent solubility in water without forming hydrogels. However, a mixture of 5 and 8 self-assembles to form nanofibers and results in a supramolecular hydrogel. The pr ...

[2] = molecular target: T1, proteinase K; assay: biostability: incubation with proteinase K; format: in vitro ADME; details: 24 h, 37 °C
Description: The existence of proteolytic enzymes in organism limits the applications of peptide-based biomaterials in vivo. […] When we changed the peptide sequence to EPTV, only 15% of 3 left.
Figure 3 Compounds remained after incubating with proteinase K (3.2 U/mL) for 24 h at 37 °C. (A) Each conjugate 1–8 is at the concentration of 0.2 mg/mL in HEPES buffer (pH 7.4). (B) Mixture of 1 + 8, 5 + 8, or 7 + 8 is in PBS buffer ([1] = [5] = [8] = 8.3 mM, pH 6.2). TEXT PRINTED IN THE PICTURE: (A) 4: Comp. remained %: Un-detectable | (A) 8: Comp. remained %: Un-detectable | (B) 8: Comp. remained %: Un-detectable (Mixtures: 7+8)
Starting materials and reagents were purchased from GL Biochem (Shanghai) Ltd. and Fisher Scientific without further purification unless otherwise noted. Proteinase K was purchased from Sigma (>800 unit/mL). The HeLa cell line (CCL-2) and the PC12 (CRL-1721.1) cell line were purchased from the American Type Culture Collection. All of the media were purchased from Invitrogen.

Question: For TTPV, which “proteolytic stability of the peptidic epitope itself” value [1] is on record?
Answer: proteolytic resistant

Question: For `CC[C@H](C)[C@H](NC(=O)[C@H](CC(N)=O)NC(=O)[C@H](Cc1ccccc1)NC(=O)CNC(=O)[C@H](CC(C)C)NC(=O)Cn1cnc2c(N)ncnc21)C(=O)O` [compound 8] (Adenin9ylacetyl-LGFNI-OH), which “8 remained after incubating the mixture 1 + 8 with proteinase K” value ([2]; mixture 1 + 8, each 8.3 mM in PBS buffer pH 6.2, proteinase K 3.2 U/mL) is on record?
Answer: about 3%

Question: And the “8 remained after incubating the mixture 5 + 8 (hydrogel) with proteinase K” value ([2]; mixture 5 + 8, each 8.3 mM in PBS buffer pH 6.2, proteinase K 3.2 U/mL)?
Answer: about 50%

Question: What about the “8 remained after incubating the mixture 7 + 8 with proteinase K” value ([2]; mixture 7 + 8 in PBS buffer pH 6.2, same condition as 5 + 8, proteinase K 3.2 U/mL) of the same compound?
Answer: Un-detectable

Question: Which “proteolytic stability of the peptidic epitope itself” value [1] does the source give for LGFNI here?
Answer: susceptible to proteolysis
